Measured values as given in article PMC11153573, “Structural basis for expanded substrate specificities of human long chain acyl-CoA dehydrogenase and related acyl-CoA dehydrogenases” (Scientific Reports, 2024).
Numbering of substitutions follows the chain as printed.

What was measured:
[1] = target: T1, human long-chain acyl-CoA dehydrogenase (LCAD) (Homo sapiens, UniProt P28330); assay: X-ray crystallography, […] Å; format: binding; details: noncovalent, one FAD per subunit, at dimer interface; no substrate ligand; pH 8.2-8.5
T1 construct: gene ACADL; 400-residue mature protein without 30-residue mitochondrial transport peptide; pET11a-LCAD in E. coli BL21(DE3); no tag mentioned; 43 kDa subunit, homotetramer; numbering of the 430-residue preprotein
T1 sequence (P28330 31-430): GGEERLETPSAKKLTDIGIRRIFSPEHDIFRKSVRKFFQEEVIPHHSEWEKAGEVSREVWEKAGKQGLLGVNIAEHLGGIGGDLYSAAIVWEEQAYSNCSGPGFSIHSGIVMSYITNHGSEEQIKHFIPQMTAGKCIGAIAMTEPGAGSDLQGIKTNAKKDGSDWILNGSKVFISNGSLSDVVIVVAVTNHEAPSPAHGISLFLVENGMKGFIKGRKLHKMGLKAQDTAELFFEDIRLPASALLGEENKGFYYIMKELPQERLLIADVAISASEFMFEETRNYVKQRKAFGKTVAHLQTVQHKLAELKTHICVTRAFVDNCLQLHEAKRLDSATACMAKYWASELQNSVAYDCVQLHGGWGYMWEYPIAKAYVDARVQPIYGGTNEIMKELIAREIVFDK

[2] = target: T2, human long-chain acyl-CoA dehydrogenase (LCAD) (Homo sapiens, UniProt P28330, E291Q); assay: X-ray crystallography, […] Å, co-crystallized with C12-CoA; format: binding; details: noncovalent, one FAD per subunit; pH 8.2-8.5
T2 construct: gene ACADL; 400-residue mature protein without 30-residue mitochondrial transport peptide; pET11a-LCAD in E. coli BL21(DE3); no tag mentioned; 43 kDa subunit, homotetramer; numbering of the 430-residue preprotein
T2 sequence (P28330 31-430 E291Q): T1 sequence (P28330 31-430) with E261Q

[3] = target: T1, human long-chain acyl-CoA dehydrogenase (LCAD); assay: ferricenium reduction assay, spectrophotometric; format: biochemical; details: ferricenium as terminal electron acceptor
[4] = target: T1, human long-chain acyl-CoA dehydrogenase (LCAD); assay: X-ray crystallography, […] Å, soaked crystal; format: binding; details: active site; inhibitor; bound in monomers A and B only; 0.1% beta-octyl glucoside, pH 8.2-8.5

## Cc1cc2nc3c(=O)[nH]c(=O)nc-3n(C[C@H](O)[C@H](O)[C@H](O)COP(=O)(O)OP(=O)(O)OC[C@H]3O[C@@H](n4cnc5c(N)ncnc54)[C@H](O)[C@@H]3O)c2cc1C [FAD]
[1]
  X-ray crystallography, 2.5 Å: The strong electron density map in the FAD position indicated the correctness of the solution
[2]
  X-ray crystallography, 2.0 Å, co-crystallized with C12-CoA: FAD, Gly412, and the catalytic residue (E291Q) are shown as sticks

## CCCCCCCCCCCC(=O)SCCNC(=O)CCNC(=O)[C@H](O)C(C)(C)COP(=O)(O)OP(=O)(O)OC[C@H]1O[C@@H](n2cnc3c(N)ncnc32)[C@H](O)[C@@H]1OP(=O)(O)O [C12-CoA]
[3]
  ferricenium reduction assay, spectrophotometric: The reaction was initiated by addition of C12-CoA substrate

## CC(=O)CC(=O)SCCNC(=O)CCNC(=O)[C@H](O)C(C)(C)COP(=O)(O)OP(=O)(O)OC[C@H]1O[C@@H](n2cnc3c(N)ncnc32)[C@H](O)[C@@H]1OP(=O)(O)O [acetoacetyl-CoA]
[4]
  X-ray crystallography, 2.8 Å, soaked crystal: the inhibitor acetoacetyl-CoA can be soaked into the crystals
